Reference: patent US20250057960A1, “OLIGOSACCHARIDE COMPLEXES AND USES” (BioNTech SE, priority 2021, published 2025)

Assays:
[1] = tested on: hPBMCs; experiment: Secretion of pro-inflammatory cytokines and chemokines in hPBMCs after transfection with modRNA formulations (Example 10); assay type: cell-based, human; conditions: incorporated into cationic oligosaccharide (JLF218)+Tween40 modRNA complex, 1:0.5:0.5 molar ratio, N/P6; 24 hours after transfection; FIGS. 10A to 10D
Description: The present example provides complexes comprising a third component which can inhibit the immune response against the expressed protein from the delivered RNA, avoiding pro-inflammatory signals that can hamper the therapeutic effect of RNA-therapy. In the present experiment, a TLR4 inhibitor molecule, TAK-242, was used alone or together with a wide spectrum immunosuppressor, dexamethasone, in combination with cationic oligosaccharides described herein+Tween40 to formulate modRNA encoding for luciferase.
In the first part of the experiment, secretion of pro-inflammatory cytokines in hPBMCs was evaluated for two different cationic oligosaccharides: JLF218 and PRX093, whereas different combinations including TAK-242 and/or Dexamethasone are tested. […] IL-6, TNF-α, IL-1β, IFN-γ, MIP-1β, IP-10 and MCP-1 secretion after 24 hours of transfection of 5×105 hPMBCs was evaluated in the supernatants using MSD Kit Standard Protocol. Primary human hepatocytes were transfected with a dose variation between 0.01-1 μg of modRNA and luciferase expression is evaluated over the course of 6 days.
FIG. 10A is a scatter plot illustrating quantified IL-6 secretion in hPBMCs upon exposure to different doses of tested formulations. FIG. 10B is a scatter plot illustrating quantified TNF-α secretion in hPBMCs upon exposure to different doses of tested formulations. […]

[2] = tested on: human PBMCs; experiment: Pro-inflammatory cytokine secretion in human PBMCs with alternative TLR inhibitors (Example 14); assay type: cell-based; conditions: in JLF218+Tween40+TL2-C29 (1:0.5:0.5) modRNA formulation, N/P6; 24 hours after transfection
Procedure: The present example evaluated the impact of different TLR inhibitors. Pro-inflamatory cytokine secretion in human PBMCs was evaluated for two different oligosaccharide formulations (JLF218 and JLF244) in combination with either TAK-242 or TL2-C29. Six formulations were tested, as illustrated in table below: […]
All formulations were complexed with modRNA (coding for firefly luciferase) formulated at N/P6. Formulations were complexed in MBG Buffer (final concentration 5% w/v Glucose, 10 mM MES, pH 6.1), at RNA final concentration of 0.15 mg/mL and the mixing ratio of the RNA containing solution and the oligosccharide+Tween40 (+TAK-242 or TL2-C29 as indicated) containing solution was 9:1 (v:v) for all the cases.
IL-6, TNFα, IL1b, IFNg, MIP1b, IP10 and MCP1 secretion was evaluated 24 hours after transfection of 1e^6 human PMBCs in supernatant using the MSD Kit Standard Protocol. Cell viability was evaluated using a XTT Standard Assay. In the following figures, C29 refers to TL2-C29. FIG. 12A is a plot illustrating IL-6 secretion of human PBMCs (hPMBCs) for different doses of tested formulations. FIG. 12B is a plot illustrating TNFa secretion of hPBMCs for different doses of tested formulations. FIG. 12C is a plot illustrating IL1b secretion of hPBMCs for different doses of tested formulations. […]

Row | SMILES | secretion of pro-inflammatory cytokines (IL-6, TNF-α, IL-1β, IFN-γ) [1] | secretion of pro-inflammatory cytokines [2]
1 | CCOC(=O)C1=CCCC[C@H]1S(=O)(=O)Nc1ccc(F)cc1Cl [TAK-242] | reduction of pro-inflammatory cytokines | –
2 | COc1cccc(/C=N/c2cccc(C(=O)O)c2C)c1O [TL2-C29] | – | able to inhibit
